Tests used:
DQ2–CLIP complex = DQ2–CLIP complex (Homo sapiens, UniProt P01909+P01920); experiment: CLIP pre-conditioned peptide exchange assay; type: binding; details: CE-FL; for binding to DQ2–CLIP preparation / displacement of pre-bound CLIP peptide: pH 5.5, peptide:DQ2 5:1 ([Cy5-20-mer]=35 μM; [DQ2-CLIP complex]=7 μM)
HLA-DQ2 = experiment: DQ2-peptide binding; set-up: species or system human; details: single peptide binding; thrombin treated DQ2–αI; DQ2:peptide = 10:1 ([DQ2]=6 μM, [peptide]=0.6 μM); 48 h at 37 °C; phosphate buffer pH 7.3; CE-FL peak areas; error less than 4% in multiple repeats

DQ2–CLIP complex, sequence (P01920 33-230 limits assumed, other chains not shown): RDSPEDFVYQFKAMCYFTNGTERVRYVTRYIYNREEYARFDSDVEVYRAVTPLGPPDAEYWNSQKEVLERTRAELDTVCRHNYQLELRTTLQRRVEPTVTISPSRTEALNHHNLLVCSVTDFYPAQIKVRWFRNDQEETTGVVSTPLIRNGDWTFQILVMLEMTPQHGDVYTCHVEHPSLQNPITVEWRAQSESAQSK

Row | binding to DQ2–CLIP preparation / displacement of pre-bound CLIP peptide (DQ2–CLIP complex) | SDQ2-peptide / Stotal peptide (%) (binding capacity, fraction of bound peptide) (HLA-DQ2) | effect on dissociation kinetics of CLIP peptide from DQ2–CLIP complex (DQ2–CLIP complex; pH 7.3, with 20-mer (5:1, [Cy5-20-mer]=35 μM; [DQ2-CLIP complex]=7 μM) versus absence of 20-mer) | Substance
1 | unable to bind | – | – | Cy5-AAIAAVKEEAF [reference compound]
2 | not at pH 5.5 | 64 | did not affect the dissociation kinetics | Cy5-LQLQPFPQPELPYPQPELPY [Cy5-20-mer]

From PMC3382112 (Chemistry, an Asian journal, 2012)
